Source: US20120277281A1, “POLYNUCLEOTIDES FOR MEDICAL USE” (MAX-DELBRÜCK-CENTRUM FÜR MOLEKULARE MEDIZIN, priority 2009, published 2012)

Assays:
Type in all cases: cell-based, human
[1] = tested on: canonical and non-canonical CSF1R transcripts; test: RT-PCR of canonical and non-canonical CSF1R transcripts in Reh and Namalwa cells; conditions: single agent
Protocol: FIG. 7. Analysis of CSF1R LTR DNA methylation and CBFA2T3 expression. Expression of the transcriptional corepressor CBFA2T3 is lost in HRS cells. (A) Activation of the non-canonical CSF1R transcripts following treatment with TSA and/or 5-aza-dC. The non-HRS cell lines Reh and Namalwa were left untreated or treated with 5-aza-dC, TSA, or 5-aza-dC in combination with TSA. The expression of canonical and non-canonical CSF1R transcripts was analyzed by RT-PCR. The analysis of KM-H2 cells and of GAPDH expression were used as controls. (7A) Analysis of canonical and noncanonical CSF1R transcripts following treatment of Reh and Namalwa cells with TSA and/or 5-aza-dC. […] The expression of both canonical (+720 to +1,325) and noncanonical (−5,090 to +148 and −6152 to −143) CSF1R transcripts was analyzed by RT-PCR. […] GAPDH expression was analyzed as a control. […] (B) Various cell lines and primary CD19^+ human tonsilar B cells were analyzed for expression of CBFA2T3 mRNA by RT-PCR (upper panel) and protein by Western blotting (WB; lower panel) expression. […] Expression of GAPDH and β-actin were analyzed as controls. […] GAPDH and beta-actin expression were analyzed as controls. n.s., non-specific. […] Schematic overview of the regions analyzed for DNA methylation (upper panel) and results of bisulfite pyrosequencing in lymphoma/leukemia cell lines and controls (lower panel). […]

[2] = tested on: KM-H2 cells; test: [3H]-thymidine incorporation in KM-H2 cells after CSF-1 inhibition; conditions: 80 μg/ml, pulsed after 24 h
Protocol: FIG. 3. HRS cells depend on CSF1R activity. (A) L540Cy cells were left untreated (−) or treated with the indicated amounts rhCSF-1 (closed bars) or the respective control (open bars) under serum reduced conditions (1% FCS). After 48 hours, cells were pulsed with 1 μCi [^3H]-thymidine per well for a further 20 hours, and [^3H]-thymidine incorporation was determined cpm, counts per minute. Data are represented as mean±SD. (3A) [^3H]-thymidine incorporation in L540Cy cells left untreated (−) or treated with the indicated amounts of rhCSF-1 (black bars) or water control (open bars) under serum-reduced conditions (1% FCS) determined after 48 h. Data are represented as means±s.d. […] After 24 hours, cells were pulsed with [^3H]-thymidine incorporation and analyzed as described in (A). […] CSF1R tyrosine phosphorylation was analyzed as described in FIG. 1F. […]
DNA synthesis was determined by [^3H]-thymidine incorporation assays using standard protocols. The percentage of viable and apoptotic cells was determined by annexin V-FITC/propidium iodide (PI) double-staining (Bender MedSystems) and subsequent FACS analysis.
We determined DNA synthesis by [^3H]-thymidine incorporation assays using standard protocols. In case of L540Cy cells (FIG. 1d), after 48 hours, cells were pulsed with 1 μCi [^3H]-thymidine per well for a further 20 hours, and [^3H]-thymidine incorporation was determined. […]

[3] = tested on: CSF1R; test: rhCSF1-induced CSF1R tyrosine phosphorylation in DEL cells (IP, immunoblot); conditions: preincubation with CSF1R:Fc
Protocol: FIG. 9. (A) Analysis of CSF1 mRNA expression by Northern blot in various cell lines, as indicated. Expression of GAPDH was analyzed as a control. Note, that Hodgkin cell lines overexpress two splice variants compared to control cell lines Reh, Namalwa and BL60, which lack CSF1 expression. (B) To test the functionality of the decoy-receptor-like CSF1R:Fc inhibitor, anaplastic large cell lymphoma derived DEL cells, which show an abundant CSF1R expression (Mathas, S. et al., PNAS 106, 5831-5836 (2009)), were left untreated or stimulated with rhCSF1 with or without preincubation with CSF1R:Fc or the respective IgG1:Fc control. Thereafter, IP was performed with a CSF1R-specific antibody or the respective isotype control (IC), and CSF1R tyrosine phosphorylation was detected by immunoblot with antibody to phospho-tyrosine (p-Tyr; upper panel). As a control, the membrane was reprobed with antibody to CSF1R (lower panel). Note, that CSF1R:Fc prevents rhCSF-1 induced CSF1R phosphorylation.

Compound	induction of canonical and non-canonical CSF1R transcripts [1]	[3H]-thymidine incorporation [2]	rhCSF-1 induced CSF1R phosphorylation [3]
Nc1ncn([C@H]2C[C@H](O)[C@@H](CO)O2)c(=O)n1 [Compound 5-aza-dC, 5-aza-2′-deoxycytidine]	weakly induced		
CC(/C=C/C(=O)NO)=C\[C@@H](C)C(=O)c1ccc(N(C)C)cc1 [TSA, Trichostatin A]	weakly induced		
CSF1R:Fc: decoy-receptor-like inhibitor that binds to and neutralizes CSF-1 (329-MR, R&D Systems)		strong reduction	prevents
